In experiment [1] the test system is spinal nerve ligation model of neuropathic pain. The settings on record: rats; Dogrul et al., Pain (2003); cited from earlier work.
Experiment [2] concerns the target T1, human α1H T-type channels (Homo sapiens, UniProt O95180).
T1 construct: expressed in transfected cells; host or cells: HEK 293
The experiment is described as follows: T-type calcium channel block, whole cell patch clamp (α1H). The following applies: HEK cells stably expressing human α1H; mainly non-inactivated protocol; values above 10 μM represented as 10 μM. In kind it is cell-based. The method, boiled down:
(§1)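 Resting block was measured mainly with the non-inactivated protocol: holding potential −110 mV, 1 s step to −100 mV, then a 50 ms test pulse at −40 mV. Recordings used stably transfected human α1G or α1H HEK293 lines, with compounds perfused in external solution containing 0.1-0.01% DMSO. IC50 values (μM) above 10 μM are reported as 10 μM.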
A general note: Patch clamp records ionic current or voltage across a cell membrane.

Experiment [3] concerns the target T2, human α1G T-type channels (Homo sapiens, UniProt O43497).
T2 construct: expressed in transfected cells; host or cells: HEK 293
Kind of experiment: T-type calcium channel block, whole cell patch clamp (α1G). In kind it is cell-based. The settings on record: HEK cells stably expressing human α1G; mainly non-inactivated protocol; values above 10 μM represented as 10 μM, values below 0.30 μM represented as 0.30 μM. The method, boiled down:
as §1

For experiment [4], the system named is T-type over L-type channels. The following applies: cited from earlier work.

Some results are limits rather than exact numbers.

T1 sequence (O95180 whole entry): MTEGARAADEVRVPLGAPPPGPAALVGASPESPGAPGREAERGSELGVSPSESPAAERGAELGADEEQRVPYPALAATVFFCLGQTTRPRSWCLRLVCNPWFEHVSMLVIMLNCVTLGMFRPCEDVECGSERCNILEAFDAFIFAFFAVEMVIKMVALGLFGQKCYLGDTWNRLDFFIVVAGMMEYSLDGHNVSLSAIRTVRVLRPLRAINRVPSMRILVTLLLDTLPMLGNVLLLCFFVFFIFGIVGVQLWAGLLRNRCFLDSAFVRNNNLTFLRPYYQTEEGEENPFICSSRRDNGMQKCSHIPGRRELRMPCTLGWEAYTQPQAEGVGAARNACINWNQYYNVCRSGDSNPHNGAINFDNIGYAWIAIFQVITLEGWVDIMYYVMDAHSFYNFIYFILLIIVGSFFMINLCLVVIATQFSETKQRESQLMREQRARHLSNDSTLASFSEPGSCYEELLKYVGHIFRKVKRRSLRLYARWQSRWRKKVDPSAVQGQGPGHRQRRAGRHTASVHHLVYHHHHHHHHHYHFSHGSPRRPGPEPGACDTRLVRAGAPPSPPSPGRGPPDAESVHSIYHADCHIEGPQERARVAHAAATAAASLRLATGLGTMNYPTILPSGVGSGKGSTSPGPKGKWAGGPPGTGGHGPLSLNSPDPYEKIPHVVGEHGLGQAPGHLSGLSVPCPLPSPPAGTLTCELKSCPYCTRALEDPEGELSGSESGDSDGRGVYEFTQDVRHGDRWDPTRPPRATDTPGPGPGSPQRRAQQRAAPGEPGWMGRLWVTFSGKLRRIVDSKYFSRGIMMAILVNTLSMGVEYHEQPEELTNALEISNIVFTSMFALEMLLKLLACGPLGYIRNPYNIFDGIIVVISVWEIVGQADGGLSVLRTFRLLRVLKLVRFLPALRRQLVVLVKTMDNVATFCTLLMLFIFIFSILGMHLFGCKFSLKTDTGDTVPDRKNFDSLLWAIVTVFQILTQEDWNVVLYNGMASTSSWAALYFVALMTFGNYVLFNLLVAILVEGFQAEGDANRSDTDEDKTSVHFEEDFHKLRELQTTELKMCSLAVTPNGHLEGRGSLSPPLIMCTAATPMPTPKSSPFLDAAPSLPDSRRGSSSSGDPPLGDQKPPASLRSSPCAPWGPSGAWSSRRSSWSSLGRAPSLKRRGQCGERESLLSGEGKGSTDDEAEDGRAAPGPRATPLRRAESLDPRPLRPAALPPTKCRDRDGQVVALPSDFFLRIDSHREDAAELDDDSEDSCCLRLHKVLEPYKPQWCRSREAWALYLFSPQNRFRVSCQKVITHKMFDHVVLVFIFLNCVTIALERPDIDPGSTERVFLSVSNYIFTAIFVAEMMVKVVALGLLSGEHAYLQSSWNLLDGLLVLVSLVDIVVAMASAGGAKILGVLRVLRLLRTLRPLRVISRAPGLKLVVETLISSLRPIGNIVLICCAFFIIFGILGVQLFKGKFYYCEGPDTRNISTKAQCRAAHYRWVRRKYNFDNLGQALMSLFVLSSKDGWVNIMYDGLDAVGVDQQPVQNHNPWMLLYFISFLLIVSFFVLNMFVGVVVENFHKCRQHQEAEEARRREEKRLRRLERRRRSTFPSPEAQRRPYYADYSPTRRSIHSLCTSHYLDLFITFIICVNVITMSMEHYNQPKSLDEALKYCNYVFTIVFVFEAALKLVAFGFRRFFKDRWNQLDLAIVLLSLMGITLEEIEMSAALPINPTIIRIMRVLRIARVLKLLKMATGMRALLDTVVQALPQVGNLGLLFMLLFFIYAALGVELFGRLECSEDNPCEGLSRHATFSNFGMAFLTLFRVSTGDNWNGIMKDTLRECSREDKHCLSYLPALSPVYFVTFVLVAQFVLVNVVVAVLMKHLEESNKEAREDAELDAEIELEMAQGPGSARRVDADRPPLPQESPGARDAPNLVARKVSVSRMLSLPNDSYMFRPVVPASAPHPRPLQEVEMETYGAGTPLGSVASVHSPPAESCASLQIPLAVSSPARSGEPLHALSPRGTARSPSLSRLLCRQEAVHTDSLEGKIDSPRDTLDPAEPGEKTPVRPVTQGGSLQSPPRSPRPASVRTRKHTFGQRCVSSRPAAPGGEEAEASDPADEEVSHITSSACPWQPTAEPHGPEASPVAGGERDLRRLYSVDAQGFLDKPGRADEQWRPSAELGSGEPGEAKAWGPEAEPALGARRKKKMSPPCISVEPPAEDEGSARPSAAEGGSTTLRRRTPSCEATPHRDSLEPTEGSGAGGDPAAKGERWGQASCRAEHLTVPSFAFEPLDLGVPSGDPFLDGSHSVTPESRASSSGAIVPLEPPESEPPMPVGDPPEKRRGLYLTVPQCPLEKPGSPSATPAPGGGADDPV
T2 sequence (O43497 whole entry): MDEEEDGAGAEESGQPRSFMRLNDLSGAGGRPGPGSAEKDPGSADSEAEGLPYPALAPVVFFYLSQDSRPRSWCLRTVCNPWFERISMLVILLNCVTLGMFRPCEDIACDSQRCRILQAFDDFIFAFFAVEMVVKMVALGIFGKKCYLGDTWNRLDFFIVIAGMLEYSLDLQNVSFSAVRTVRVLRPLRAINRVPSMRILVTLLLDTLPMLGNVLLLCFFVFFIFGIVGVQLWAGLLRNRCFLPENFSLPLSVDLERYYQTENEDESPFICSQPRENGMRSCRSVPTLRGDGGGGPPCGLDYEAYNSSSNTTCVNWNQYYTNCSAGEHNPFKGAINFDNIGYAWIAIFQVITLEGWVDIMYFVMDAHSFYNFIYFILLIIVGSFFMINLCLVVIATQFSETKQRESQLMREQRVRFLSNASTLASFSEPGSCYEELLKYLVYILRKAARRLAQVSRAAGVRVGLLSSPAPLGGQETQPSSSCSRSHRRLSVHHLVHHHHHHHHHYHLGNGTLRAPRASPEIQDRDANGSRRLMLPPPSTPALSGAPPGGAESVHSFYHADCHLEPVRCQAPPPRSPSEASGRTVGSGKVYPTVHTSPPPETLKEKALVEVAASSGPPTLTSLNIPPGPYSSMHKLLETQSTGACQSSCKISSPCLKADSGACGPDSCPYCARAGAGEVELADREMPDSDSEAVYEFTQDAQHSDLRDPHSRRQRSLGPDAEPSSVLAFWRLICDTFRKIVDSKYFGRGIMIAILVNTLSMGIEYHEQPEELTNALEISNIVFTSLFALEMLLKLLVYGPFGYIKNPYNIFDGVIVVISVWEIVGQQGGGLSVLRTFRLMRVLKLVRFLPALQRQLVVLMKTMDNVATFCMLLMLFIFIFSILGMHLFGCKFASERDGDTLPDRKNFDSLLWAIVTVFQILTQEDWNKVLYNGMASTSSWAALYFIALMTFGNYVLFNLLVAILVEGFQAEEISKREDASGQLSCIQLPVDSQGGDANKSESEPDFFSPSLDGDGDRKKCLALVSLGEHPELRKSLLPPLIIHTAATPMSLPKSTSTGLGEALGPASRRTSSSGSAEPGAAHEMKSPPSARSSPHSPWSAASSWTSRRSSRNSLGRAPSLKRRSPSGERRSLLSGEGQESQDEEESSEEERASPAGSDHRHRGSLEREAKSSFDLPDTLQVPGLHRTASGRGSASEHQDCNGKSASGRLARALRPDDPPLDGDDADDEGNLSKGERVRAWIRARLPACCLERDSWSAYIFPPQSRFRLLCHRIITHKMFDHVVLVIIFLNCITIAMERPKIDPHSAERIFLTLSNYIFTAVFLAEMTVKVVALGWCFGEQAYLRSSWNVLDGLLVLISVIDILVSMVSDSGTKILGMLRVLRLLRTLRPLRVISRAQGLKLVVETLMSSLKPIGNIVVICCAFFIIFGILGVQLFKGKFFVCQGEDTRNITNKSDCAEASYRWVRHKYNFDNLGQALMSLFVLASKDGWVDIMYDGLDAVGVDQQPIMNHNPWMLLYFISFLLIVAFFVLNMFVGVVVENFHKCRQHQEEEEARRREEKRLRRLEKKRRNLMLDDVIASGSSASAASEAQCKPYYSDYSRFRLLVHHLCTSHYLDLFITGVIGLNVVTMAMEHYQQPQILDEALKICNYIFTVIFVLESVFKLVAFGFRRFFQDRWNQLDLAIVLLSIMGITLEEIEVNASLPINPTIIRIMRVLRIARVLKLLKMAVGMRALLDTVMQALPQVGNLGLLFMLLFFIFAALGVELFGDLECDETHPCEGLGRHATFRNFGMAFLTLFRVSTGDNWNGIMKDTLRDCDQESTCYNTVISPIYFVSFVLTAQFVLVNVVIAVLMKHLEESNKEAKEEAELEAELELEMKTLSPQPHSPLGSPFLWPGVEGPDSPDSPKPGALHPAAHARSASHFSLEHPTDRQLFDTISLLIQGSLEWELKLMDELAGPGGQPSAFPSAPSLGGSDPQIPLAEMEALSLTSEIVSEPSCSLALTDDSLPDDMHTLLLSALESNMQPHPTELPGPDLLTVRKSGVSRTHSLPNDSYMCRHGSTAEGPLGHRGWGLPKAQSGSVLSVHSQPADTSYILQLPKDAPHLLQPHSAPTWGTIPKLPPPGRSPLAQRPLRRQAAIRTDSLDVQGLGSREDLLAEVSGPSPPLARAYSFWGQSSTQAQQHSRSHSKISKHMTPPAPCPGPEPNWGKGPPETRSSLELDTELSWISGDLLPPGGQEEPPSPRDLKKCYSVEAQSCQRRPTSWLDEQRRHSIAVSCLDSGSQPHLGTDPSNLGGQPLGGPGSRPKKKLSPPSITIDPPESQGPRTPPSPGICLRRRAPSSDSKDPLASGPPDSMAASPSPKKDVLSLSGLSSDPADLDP

Turning to `CCC1(C)CC(=O)NC1=O` (stereo not drawn) [ethosuximide], the “anti-hyperalgesic activity in the spinal nerve ligation model” value in experiment [1] is “anti-hyperalgesic activity”. The IC50 is the concentration that gives 50% inhibition. Take `CN(C(=O)CN[C@H]1CC[C@H](CNC(=O)c2cc(C(F)(F)F)cc(C(F)(F)F)c2)CC1)C1CCCC1` [Compound 59, N-((trans-4-(2-(cyclopentyl(methyl)amino)-2-oxoethylamino)cyclohexyl)methyl)-3,5-bis(trifluoromethyl)benzamide]: the IC50 was 620 nM in experiment [2] and ≤ 300 nM in experiment [3].

As to `COc1ccc(CN[C@H]2CC[C@@H](CNC(=O)c3cc(C(F)(F)F)cc(C(F)(F)F)c3)CC2)c(OC)c1` [Compound 14, N-((cis-4-(2,4-dimethoxybenzylamino)cyclohexyl)methyl)-3,5-bis(trifluoromethyl)benzamide], the IC50 in experiment [2] was 560 nM; in experiment [3], ≤ 300 nM. In the same order, the values of `NC1(C(=O)N[C@H]2CC[C@H](CC(=O)Nc3cc(C(F)(F)F)cc(C(F)(F)F)c3)CC2)CCCC1` [Compound 124, 1-amino-N-(trans-4-(2-(3,5-bis(trifluoromethyl)phenylamino)-2-oxoethyl)cyclohexyl)cyclopentanecarboxamide] are ≥ 10000 nM and 830 nM.

On to `O=C(CN[C@H]1CC[C@H](CNC(=O)c2cc(C(F)(F)F)cc(C(F)(F)F)c2)CC1)NCC(F)(F)F` [Compound 58, N-((trans-4-(2-oxo-2-(2,2,2-trifluoroethylamino)ethylamino)cyclohexyl)methyl)-3,5-bis(trifluoromethyl)benzamide], for which the IC50 in experiment [2] amounted to 530 nM; in experiment [3], 1000 nM. On the same counts, the results for `COc1ccc(CN[C@H]2CC[C@H](CNC(=O)c3cc(C(F)(F)F)cc(C(F)(F)F)c3)CC2)c(OC)c1` [Compound 35, N-((trans-4-(2,4-dimethoxybenzylamino)cyclohexyl)methyl)-3,5-bis(trifluoromethyl)benzamide] are 770 nM and 390 nM.

On to `O=C(NC[C@H]1CC[C@@H](NCC(=O)N2CCCC2)CC1)c1cc(C(F)(F)F)cc(C(F)(F)F)c1` [Compound 39, N-((cis-4-(2-oxo-2-(pyrrolidin-1-yl)ethylamino)cyclohexyl)methyl)-3,5-bis(trifluoromethyl)benzamide], for which the results for the IC50 in experiment [2] and in experiment [3] were 790 nM and 1330 nM, respectively. In the same order, the values of `COc1cc(F)cc(C(=O)NC[C@H]2CC[C@@H](NCC(=O)N(C)C(C)(C)C)CC2)c1` [Compound 200, N-(((1s,4s)-4-(2-(tert-butyl(methyl)amino)-2-oxoethylamino)cyclohexyl)methyl)-3-fluoro-5-methoxybenzamide] are 470 nM and 3350 nM.

Take `Cc1cc(CNC[C@H]2CC[C@H](NC(=O)c3cc(C(F)(F)F)cc(C(F)(F)F)c3)CC2)no1` [Compound 90, N-(trans-4-(((5-methylisoxazol-3-yl)methylamino)methyl)cyclohexyl)-3,5-bis(trifluoromethyl)benzamide]: the IC50 in experiment [2] came to 3860 nM; in experiment [3], 3470 nM. Take `CC(C)(O)CN[C@H]1CC[C@H](CNC(=O)c2cc(C(F)(F)F)cc(C(F)(F)F)c2)CC1` [Compound 4, N-((trans-4-(2-hydroxy-2-methylpropylamino)cyclohexyl)methyl)-3,5-bis(trifluoromethyl)benzamide]: the values for the 50% inhibitory concentration (IC50) in experiment [2] and in experiment [3] were 4430 nM and 4540 nM, respectively. As for `COCC(=O)O[C@]1(CCN(C)CCCc2nc3ccccc3[nH]2)CCc2cc(F)ccc2[C@@H]1C(C)C` [Mibefradil], the “fold selective for T-type over L-type channels” value in experiment [4] was 10-30 fold. Besides, in experiment [1], the “anti-hyperalgesic activity in the spinal nerve ligation model” value is given as “anti-hyperalgesic activity”.

These data come from US20090298834A1, “4-(AMINOMETHYL)CYCLOHEXANAMINE DERIVATIVES AS CALCIUM CHANNEL BLOCKERS” (priority 2008, published 2009).
